ChEMBL document CHEMBL3885861, “Open TG-GATES”

Organism: Rattus norvegicus
Assay: Open TG-GATES - Regimen: Single
Type: toxicity, organism-based, Sprague-Dawley
Set-up: regimen Single, gender Male, age 6 weeks
Conditions: in vivo, po, 0 mg/kg, route gavage, dose level Control; for Bas / Eos / Lym / MCHC / MCV / Mono / Neu / RBC / Ret / WBC: tissue Blood; for KIDNEY_L / KIDNEY_R / KIDNEY_TOTAL: tissue Kidney; for LIVER: tissue Liver; for ALP / AST / CRE / DBIL / GLC / IP / K / LDH / Na / PL / RALB / TBIL / TC / TP / gamma-GTP: tissue Plasma

Question: `CS(=O)(=O)O.Cc1ccc(NC(=O)c2ccc(CN3CCN(C)CC3)cc2)cc1Nc1nccc(-c2cccnc2)n1` [IMATINIB MESYLATE] was tested. Which Bas (3 h) did it give?
Answer: 0%

Question: What about the Eos (3 h) of the same compound?
Answer: 0.6%

Question: What about the Lym (3 h) of the same compound?
Answer: 77.4%

Question: What about the MCHC (3 h) of the same compound?
Answer: 32.7%

Question: What about the MCV (3 h) of the same compound?
Answer: 64.2 fL

Question: What about the Mono (3 h) of the same compound?
Answer: 3%

Question: What about the Neu (3 h) of the same compound?
Answer: 18.6%

Question: And the RBC (3 h)?
Answer: 606.4 x10_4/ul

Question: What about the Ret (3 h) of the same compound?
Answer: 9.4%

Question: What about the WBC (3 h) of the same compound?
Answer: 98.6 x10_2/uL

Question: And the KIDNEY_L (3 h)?
Answer: 0.9 g

Question: What about the KIDNEY_R (3 h) of the same compound?
Answer: 0.9 g

Question: And the KIDNEY_TOTAL (3 h)?
Answer: 1.7 g

Question: What about the LIVER (3 h) of the same compound?
Answer: 9.6 g

Question: What about the ALP (3 h) of the same compound?
Answer: 1737 IU/L

Question: What about the AST (3 h) of the same compound?
Answer: 82.8 IU/L

Question: What about the CRE (3 h) of the same compound?
Answer: 0.2 mg/dL

Question: What about the DBIL (3 h) of the same compound?
Answer: 0.004 mg/dL

Question: What about the GLC (3 h) of the same compound?
Answer: 184 mg/dL

Question: And the IP (3 h)?
Answer: 8.3 mg/dL

Question: And the K (3 h)?
Answer: 4.1 meq/L

Question: And the LDH (3 h)?
Answer: 215.6 IU/L

Question: And the Na (3 h)?
Answer: 143.2 meq/L

Question: What about the PL (3 h) of the same compound?
Answer: 163.8 mg/dL

Question: And the RALB (3 h)?
Answer: 4.1 g/dL

Question: What about the TBIL (3 h) of the same compound?
Answer: 0.012 mg/dL

Question: And the TC (3 h)?
Answer: 86.8 mg/dL

Question: And the TP (3 h)?
Answer: 5.4 g/dL

Question: What about the gamma-GTP (3 h) of the same compound?
Answer: 0.8 IU/L

Question: And the Bas (6 h)?
Answer: 0%

Question: And the Eos (6 h)?
Answer: 0.4%

Question: And the Lym (6 h)?
Answer: 80.4%

Question: What about the MCHC (6 h) of the same compound?
Answer: 33.1%

Question: What about the MCV (6 h) of the same compound?
Answer: 63.3 fL

Question: And the Mono (6 h)?
Answer: 3%

Question: What about the Neu (6 h) of the same compound?
Answer: 15.2%

Question: And the RBC (6 h)?
Answer: 615.4 x10_4/ul

Question: What about the Ret (6 h) of the same compound?
Answer: 11.2%

Question: And the WBC (6 h)?
Answer: 112.4 x10_2/uL

Question: What about the KIDNEY_L (6 h) of the same compound?
Answer: 0.8 g

Question: And the KIDNEY_R (6 h)?
Answer: 0.8 g

Question: And the KIDNEY_TOTAL (6 h)?
Answer: 1.7 g

Question: And the LIVER (6 h)?
Answer: 8.7 g

Question: What about the ALP (6 h) of the same compound?
Answer: 1529.4 IU/L

Question: What about the AST (6 h) of the same compound?
Answer: 72.4 IU/L

Question: And the CRE (6 h)?
Answer: 0.2 mg/dL

Question: And the DBIL (6 h)?
Answer: 0.006 mg/dL

Question: What about the GLC (6 h) of the same compound?
Answer: 175.8 mg/dL

Question: And the IP (6 h)?
Answer: 9.6 mg/dL

Question: What about the K (6 h) of the same compound?
Answer: 4.2 meq/L

Question: And the Na (6 h)?
Answer: 139.7 meq/L

Question: And the PL (6 h)?
Answer: 152.4 mg/dL

Question: What about the RALB (6 h) of the same compound?
Answer: 4 g/dL

Question: And the TBIL (6 h)?
Answer: 0.022 mg/dL

Question: What about the TC (6 h) of the same compound?
Answer: 86.4 mg/dL

Question: And the TP (6 h)?
Answer: 5.5 g/dL

Question: What about the gamma-GTP (6 h) of the same compound?
Answer: 0.9 IU/L

Question: And the Bas (9 h)?
Answer: 0%

Question: And the Eos (9 h)?
Answer: 0.8%

Question: And the Lym (9 h)?
Answer: 76.4%

Question: And the MCHC (9 h)?
Answer: 33.4%

Question: And the MCV (9 h)?
Answer: 62.3 fL

Question: And the Mono (9 h)?
Answer: 2.2%

Question: And the Neu (9 h)?
Answer: 20.4%

Question: And the RBC (9 h)?
Answer: 617 x10_4/ul

Question: What about the Ret (9 h) of the same compound?
Answer: 9%

Question: What about the WBC (9 h) of the same compound?
Answer: 86 x10_2/uL

Question: And the KIDNEY_L (9 h)?
Answer: 0.9 g

Question: What about the KIDNEY_R (9 h) of the same compound?
Answer: 0.9 g

Question: What about the KIDNEY_TOTAL (9 h) of the same compound?
Answer: 1.8 g

Question: And the LIVER (9 h)?
Answer: 8.1 g

Question: What about the ALP (9 h) of the same compound?
Answer: 1372 IU/L

Question: What about the AST (9 h) of the same compound?
Answer: 76.6 IU/L

Question: What about the CRE (9 h) of the same compound?
Answer: 0.2 mg/dL

Question: What about the DBIL (9 h) of the same compound?
Answer: 0.01 mg/dL

Question: What about the GLC (9 h) of the same compound?
Answer: 170 mg/dL

Question: And the IP (9 h)?
Answer: 9.5 mg/dL

Question: And the K (9 h)?
Answer: 3.9 meq/L

Question: And the LDH (9 h)?
Answer: 175 IU/L

Question: And the Na (9 h)?
Answer: 140.3 meq/L

Question: What about the PL (9 h) of the same compound?
Answer: 140.2 mg/dL

Question: What about the RALB (9 h) of the same compound?
Answer: 4.1 g/dL

Question: And the TBIL (9 h)?
Answer: 0.016 mg/dL

Question: What about the TC (9 h) of the same compound?
Answer: 81.8 mg/dL

Question: What about the TP (9 h) of the same compound?
Answer: 5.5 g/dL

Question: What about the gamma-GTP (9 h) of the same compound?
Answer: 0.8 IU/L

Question: What about the Bas (24 h) of the same compound?
Answer: 0%

Question: And the Eos (24 h)?
Answer: 1%

Question: And the Lym (24 h)?
Answer: 81.4%

Question: What about the MCHC (24 h) of the same compound?
Answer: 32.9%

Question: What about the MCV (24 h) of the same compound?
Answer: 65.5 fL

Question: And the Mono (24 h)?
Answer: 2.4%

Question: What about the Neu (24 h) of the same compound?
Answer: 14.6%

Question: What about the RBC (24 h) of the same compound?
Answer: 607.4 x10_4/ul

Question: What about the Ret (24 h) of the same compound?
Answer: 9.3%

Question: What about the WBC (24 h) of the same compound?
Answer: 100.4 x10_2/uL

Question: And the KIDNEY_L (24 h)?
Answer: 0.9 g

Question: And the KIDNEY_R (24 h)?
Answer: 0.9 g

Question: And the KIDNEY_TOTAL (24 h)?
Answer: 1.8 g

Question: What about the LIVER (24 h) of the same compound?
Answer: 10 g

Question: What about the ALP (24 h) of the same compound?
Answer: 1682.4 IU/L

Question: What about the AST (24 h) of the same compound?
Answer: 68.2 IU/L

Question: What about the CRE (24 h) of the same compound?
Answer: 0.2 mg/dL

Question: What about the DBIL (24 h) of the same compound?
Answer: 0 mg/dL

Question: What about the GLC (24 h) of the same compound?
Answer: 199.8 mg/dL

Question: And the IP (24 h)?
Answer: 7.8 mg/dL

Question: And the K (24 h)?
Answer: 4.2 meq/L

Question: And the LDH (24 h)?
Answer: 195.2 IU/L

Question: What about the Na (24 h) of the same compound?
Answer: 142.7 meq/L

Question: And the PL (24 h)?
Answer: 149 mg/dL

Question: And the RALB (24 h)?
Answer: 4.1 g/dL

Question: And the TBIL (24 h)?
Answer: 0.004 mg/dL

Question: What about the TC (24 h) of the same compound?
Answer: 75.2 mg/dL

Question: What about the TP (24 h) of the same compound?
Answer: 5.8 g/dL

Question: And the gamma-GTP (24 h)?
Answer: 1 IU/L
